Data as given in patent US7989462B2, “4-arylamin-or-4-heteroarylamino-quinazolines and analogs as activators of caspases and inducers of apoptosis and the use thereof” (Myrexis, Inc., priority 2003, dated 2011).

Test system: T-47D
Test: Caspase cascade activation in T-47D solid tumor cells (fluorogenic N-(Ac-DEVD)-N'-ethoxycarbonyl-R110 substrate)
Assay type: cell-based, Human
Details: T-47D (24 hr); for EC50: Homo sapiens, T47D, read-out: Caspase Potency EC50; for Caspase Activity Ratio: ratio of net RFU of test compound to that of control samples
Experimental: Human breast cancer cell lines T-47D and DLD-1 were grown according to media component mixtures designated by American Type Culture Collection+10% FCS (Invitrogen Corporation), in a 5% CO2-95% humidity incubator at 37° C. T-47D and DLD-1 cells were maintained at a cell density between 50 and 80% confluency at a cell density of 0.1 to 0.6×10^6 cells/mL. Cells were harvested at 600×g and resuspended at 0.65×10^6 cells/mL into appropriate media+10% FCS. An aliquot of 22.5 μL of cells was added to a well of a 384-well microtiter plate containing 2.5 μL of a 10% DMSO in RPMI-1640 media solution containing 0.16 to 100 μM of (2-chloro-quinazolin-4-yl)-(4-dimethylaminophenyl)-methylamine or other test compound (0.016 to 10 μM final). An aliquot of 22.5 μL of cells was added to a well of a 384-well microtiter plate containing 2.5 μL of a 10% DMSO in RPMI-1640 media solution without test compound as the control sample. […] After incubation, the samples were removed from the incubator and 25 μL of a solution containing 14 μM of N-(Ac-DEVD)-N′-ethoxycarbonyl-R110 fluorogenic substrate (Cytovia, Inc.; WO99/18856), 20% sucrose (Sigma), 20 mM DTT (Sigma), 200 mM NaCl (Sigma), 40 mM Na PIPES buffer pH 7.2 (Sigma), and 500 μg/mL lysolecithin (Calbiochem) was added. The samples were mixed by agitation and incubated at room temperature. Using a fluorescent plate reader (Model SPECTRAfluor Plus, Tecan), an initial reading (T=0) was made approximately 1-2 min after addition of the substrate solution, employing excitation at 485 nm and emission at 530 nm, to determine the background fluorescence of the control sample. After the 3 h incubation, the samples were read for fluorescence as above (T=3 h).
The Relative Fluorescence Unit values (RFU) were used to calculate the sample readings as follows: RFU(T=3h)−Control RFU(T=0)=Net RFU(T=3h)
The activity of caspase cascade activation was determined by the ratio of the net RFU value for (2-chloro-quinazolin-4-yl)-(4-dimethylaminophenyl)-methylamine or other test compounds to that of control samples. The EC50 (nM) was determined by a sigmoidal dose-response calculation (Prism 3.0, GraphPad Software Inc.).

COc1ccc(N(C)c2nc(NCc3ccccc3)nc3ccccc23)cc1 [Example 3, (2-Benzylamino-quinazolin-4-yl)-(4-methoxyphenyl)-methylamine] was tested, and the EC50 was 75 nM and the “Caspase Activity Ratio” value was 8.2.
In the case of COC(=O)Nc1ccc2nc(C)nc(N(C)c3ccc(OC)cc3)c2c1 [Example 33, (6-methoxycarbonylamino-2-methyl-quinazolin-4-yl)-(4-methoxy-phenyl)-methylamine], the EC50 is reported as 293 nM and the “Caspase Activity Ratio” value is reported as 6.7.
For COc1c(Br)cc(N(C)c2nc(C)nc3cc([N+](=O)[O-])ccc23)cc1Br [Example 2, (3,5-Dibromo-4-methoxyphenyl)-(2-methyl-7-nitroquinazolin-4-yl)-methylamine], the EC50 was over 10000 nM and the “Caspase Activity Ratio” value was 1.1.
